Data: BindingDB's records for PubMed 7910212 (Yamanouchi Pharmaceutical, 1994)
Values joined by “and” are separate entries in the source; they are usually repeats but may differ in a detail not shown here. Equal values may be shown once.

Assays:
Mu-type opioid receptor = Mu-type opioid receptor (Rattus norvegicus, UniProt P33535)
[1] = biological target: 5-hydroxytryptamine receptor 2A (Rattus norvegicus, UniProt P14842)
Histamine H1 receptor = Histamine H1 receptor (Cavia porcellus, UniProt P31389)
[2] = biological target: Kappa-type opioid receptor (Rattus norvegicus, UniProt P34975)
[3] = biological target: T1, 5-hydroxytryptamine receptor 1A (Rattus norvegicus, UniProt P19327)
T1 sequence (P19327 whole entry): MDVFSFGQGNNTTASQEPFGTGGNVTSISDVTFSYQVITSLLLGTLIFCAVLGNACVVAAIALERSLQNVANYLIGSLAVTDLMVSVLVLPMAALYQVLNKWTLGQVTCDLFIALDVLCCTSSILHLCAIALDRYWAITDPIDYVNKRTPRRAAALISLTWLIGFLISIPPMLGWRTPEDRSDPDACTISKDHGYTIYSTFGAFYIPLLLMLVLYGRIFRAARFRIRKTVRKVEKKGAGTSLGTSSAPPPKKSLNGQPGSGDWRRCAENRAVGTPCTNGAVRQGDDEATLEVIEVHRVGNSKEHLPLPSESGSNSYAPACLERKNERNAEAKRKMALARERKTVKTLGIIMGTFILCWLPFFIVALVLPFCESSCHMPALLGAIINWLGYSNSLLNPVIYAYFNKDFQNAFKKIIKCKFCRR

D(2) dopamine receptor = D(2) dopamine receptor (Rattus norvegicus, UniProt P61169)
[4] = biological target: T2, Alpha-1A adrenergic receptor (Rattus norvegicus, UniProt P43140)
T2 sequence (P43140 whole entry): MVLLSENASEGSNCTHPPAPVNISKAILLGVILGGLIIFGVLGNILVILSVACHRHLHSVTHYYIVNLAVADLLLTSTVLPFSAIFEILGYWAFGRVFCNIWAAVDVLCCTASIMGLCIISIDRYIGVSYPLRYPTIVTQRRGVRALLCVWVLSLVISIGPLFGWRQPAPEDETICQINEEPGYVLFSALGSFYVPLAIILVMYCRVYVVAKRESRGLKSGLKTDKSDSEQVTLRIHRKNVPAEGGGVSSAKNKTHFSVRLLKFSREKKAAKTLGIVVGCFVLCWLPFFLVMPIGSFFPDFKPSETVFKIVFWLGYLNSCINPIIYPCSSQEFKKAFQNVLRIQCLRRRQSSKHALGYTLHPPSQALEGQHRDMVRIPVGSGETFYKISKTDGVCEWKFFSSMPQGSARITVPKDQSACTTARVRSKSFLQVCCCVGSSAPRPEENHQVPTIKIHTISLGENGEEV

[5] = biological target: Gamma-aminobutyric acid receptor subunit alpha-1 (Rattus norvegicus, UniProt P62813)
[6] = biological target: T3, Alpha-2C adrenergic receptor (Rattus norvegicus, UniProt P22086)
T3 sequence (P22086 whole entry): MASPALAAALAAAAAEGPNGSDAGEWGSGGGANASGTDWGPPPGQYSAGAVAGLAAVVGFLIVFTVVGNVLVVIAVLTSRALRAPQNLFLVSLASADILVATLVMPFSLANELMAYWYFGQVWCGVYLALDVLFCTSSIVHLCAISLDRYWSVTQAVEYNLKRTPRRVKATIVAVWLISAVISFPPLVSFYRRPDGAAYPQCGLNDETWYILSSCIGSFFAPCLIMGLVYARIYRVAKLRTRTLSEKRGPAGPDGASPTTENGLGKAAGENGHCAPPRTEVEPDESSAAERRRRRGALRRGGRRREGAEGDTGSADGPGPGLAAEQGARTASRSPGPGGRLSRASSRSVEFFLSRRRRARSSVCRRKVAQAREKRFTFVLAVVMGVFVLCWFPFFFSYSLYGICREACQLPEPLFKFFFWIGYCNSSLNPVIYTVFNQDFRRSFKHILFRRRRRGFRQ

[7] = biological target: T4, Muscarinic acetylcholine receptor M2 (Rattus norvegicus, UniProt P10980)
T4 sequence (P10980 whole entry): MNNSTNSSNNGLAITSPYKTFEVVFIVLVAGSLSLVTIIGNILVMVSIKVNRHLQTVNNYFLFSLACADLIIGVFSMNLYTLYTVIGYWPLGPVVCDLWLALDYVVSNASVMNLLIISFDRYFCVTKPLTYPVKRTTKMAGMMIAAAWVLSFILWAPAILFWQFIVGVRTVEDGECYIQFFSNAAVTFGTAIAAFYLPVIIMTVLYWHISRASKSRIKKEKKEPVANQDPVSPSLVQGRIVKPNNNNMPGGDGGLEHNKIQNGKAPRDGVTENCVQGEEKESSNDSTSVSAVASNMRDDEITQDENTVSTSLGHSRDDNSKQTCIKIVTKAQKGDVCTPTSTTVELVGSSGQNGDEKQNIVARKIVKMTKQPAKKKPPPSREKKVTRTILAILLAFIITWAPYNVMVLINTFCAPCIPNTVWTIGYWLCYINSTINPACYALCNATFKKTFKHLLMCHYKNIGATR

[8] = biological target: T5, Muscarinic acetylcholine receptor M1 (Rattus norvegicus, UniProt P08482)
T5 sequence (P08482 whole entry): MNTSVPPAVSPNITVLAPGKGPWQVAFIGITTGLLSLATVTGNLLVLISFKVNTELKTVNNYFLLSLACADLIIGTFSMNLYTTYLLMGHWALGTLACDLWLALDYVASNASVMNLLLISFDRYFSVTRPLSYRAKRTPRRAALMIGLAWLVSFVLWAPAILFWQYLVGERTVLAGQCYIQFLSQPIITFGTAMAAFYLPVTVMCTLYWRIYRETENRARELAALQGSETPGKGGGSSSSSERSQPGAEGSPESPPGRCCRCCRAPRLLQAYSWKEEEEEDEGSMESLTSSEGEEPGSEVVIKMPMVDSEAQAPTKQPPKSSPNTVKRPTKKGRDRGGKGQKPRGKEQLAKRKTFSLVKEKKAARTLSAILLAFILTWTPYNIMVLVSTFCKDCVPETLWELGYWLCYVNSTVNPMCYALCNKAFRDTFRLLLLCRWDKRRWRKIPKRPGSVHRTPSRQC

[9] = biological target: Muscarinic acetylcholine receptor M3 (Rattus norvegicus, UniProt P08483)
D(1A) dopamine receptor = D(1A) dopamine receptor (Rattus norvegicus, UniProt P18901)
Glutamate receptor 3 = Glutamate receptor 3 (Rattus norvegicus, UniProt P19492)
[10] = biological target: Sigma non-opioid intracellular receptor 1 (Rattus norvegicus, UniProt Q9R0C9)
[11] = biological target: Beta-2 adrenergic receptor (Rattus norvegicus, UniProt P10608)
[12] = biological target: T6, Gastrin/cholecystokinin type B receptor (Rattus norvegicus, UniProt P30553)
T6 sequence (P30553 whole entry): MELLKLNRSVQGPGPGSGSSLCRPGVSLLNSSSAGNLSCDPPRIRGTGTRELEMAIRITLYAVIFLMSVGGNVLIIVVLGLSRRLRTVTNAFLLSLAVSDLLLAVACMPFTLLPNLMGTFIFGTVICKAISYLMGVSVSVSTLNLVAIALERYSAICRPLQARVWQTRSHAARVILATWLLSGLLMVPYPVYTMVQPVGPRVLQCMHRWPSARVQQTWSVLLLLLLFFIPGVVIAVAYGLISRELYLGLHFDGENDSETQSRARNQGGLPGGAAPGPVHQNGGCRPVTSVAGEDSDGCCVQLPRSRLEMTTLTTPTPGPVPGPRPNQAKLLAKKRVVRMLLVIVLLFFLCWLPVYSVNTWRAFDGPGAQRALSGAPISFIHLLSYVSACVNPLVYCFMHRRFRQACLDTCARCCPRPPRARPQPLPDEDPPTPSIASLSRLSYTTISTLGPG

Chain of Kappa-type opioid receptor (P34975 whole entry): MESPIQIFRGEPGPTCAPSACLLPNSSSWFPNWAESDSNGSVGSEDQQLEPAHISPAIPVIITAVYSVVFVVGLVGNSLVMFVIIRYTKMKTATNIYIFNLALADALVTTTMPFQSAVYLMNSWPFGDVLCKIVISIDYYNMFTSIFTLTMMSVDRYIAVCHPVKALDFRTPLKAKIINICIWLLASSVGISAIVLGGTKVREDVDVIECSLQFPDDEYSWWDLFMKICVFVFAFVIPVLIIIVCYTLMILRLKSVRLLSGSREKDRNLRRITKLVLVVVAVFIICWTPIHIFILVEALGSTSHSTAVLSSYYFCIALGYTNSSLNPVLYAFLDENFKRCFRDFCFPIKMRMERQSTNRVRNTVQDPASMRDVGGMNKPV
Chain of Mu-type opioid receptor (P33535 whole entry): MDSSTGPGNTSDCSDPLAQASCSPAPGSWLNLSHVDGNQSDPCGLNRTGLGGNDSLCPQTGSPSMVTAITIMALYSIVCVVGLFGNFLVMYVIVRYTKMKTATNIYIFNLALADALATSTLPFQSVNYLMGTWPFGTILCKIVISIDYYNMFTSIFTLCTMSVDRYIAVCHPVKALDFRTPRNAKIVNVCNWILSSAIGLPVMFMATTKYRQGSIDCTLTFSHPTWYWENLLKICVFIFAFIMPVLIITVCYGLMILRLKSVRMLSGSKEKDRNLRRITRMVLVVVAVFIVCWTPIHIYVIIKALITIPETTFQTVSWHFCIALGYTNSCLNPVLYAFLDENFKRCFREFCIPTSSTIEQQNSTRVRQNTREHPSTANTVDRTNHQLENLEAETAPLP
Chain of Glutamate receptor 3 (P19492 whole entry): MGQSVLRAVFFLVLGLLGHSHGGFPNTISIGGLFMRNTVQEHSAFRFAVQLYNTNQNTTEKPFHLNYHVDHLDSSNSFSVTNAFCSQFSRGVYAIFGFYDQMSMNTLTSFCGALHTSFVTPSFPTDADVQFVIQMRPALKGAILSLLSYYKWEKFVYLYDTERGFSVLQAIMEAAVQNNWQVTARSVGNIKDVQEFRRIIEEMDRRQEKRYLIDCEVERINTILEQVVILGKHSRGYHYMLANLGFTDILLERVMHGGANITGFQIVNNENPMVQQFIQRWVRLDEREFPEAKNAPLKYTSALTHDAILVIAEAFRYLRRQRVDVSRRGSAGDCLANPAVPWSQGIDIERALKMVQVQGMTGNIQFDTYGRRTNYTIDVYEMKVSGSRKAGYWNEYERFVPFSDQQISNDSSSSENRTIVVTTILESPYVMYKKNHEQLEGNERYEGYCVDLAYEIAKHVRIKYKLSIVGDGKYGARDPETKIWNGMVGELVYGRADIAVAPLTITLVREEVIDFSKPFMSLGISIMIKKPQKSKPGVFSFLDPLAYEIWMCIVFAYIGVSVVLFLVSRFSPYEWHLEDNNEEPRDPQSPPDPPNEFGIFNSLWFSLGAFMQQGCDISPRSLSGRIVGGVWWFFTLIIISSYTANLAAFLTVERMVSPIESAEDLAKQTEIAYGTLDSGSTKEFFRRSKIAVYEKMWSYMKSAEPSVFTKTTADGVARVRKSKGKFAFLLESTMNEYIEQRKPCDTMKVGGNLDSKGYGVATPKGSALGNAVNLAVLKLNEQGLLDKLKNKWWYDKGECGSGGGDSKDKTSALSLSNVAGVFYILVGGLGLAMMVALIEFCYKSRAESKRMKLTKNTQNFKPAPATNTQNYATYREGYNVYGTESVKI
Chain of Gamma-aminobutyric acid receptor subunit alpha-1 (P62813 whole entry): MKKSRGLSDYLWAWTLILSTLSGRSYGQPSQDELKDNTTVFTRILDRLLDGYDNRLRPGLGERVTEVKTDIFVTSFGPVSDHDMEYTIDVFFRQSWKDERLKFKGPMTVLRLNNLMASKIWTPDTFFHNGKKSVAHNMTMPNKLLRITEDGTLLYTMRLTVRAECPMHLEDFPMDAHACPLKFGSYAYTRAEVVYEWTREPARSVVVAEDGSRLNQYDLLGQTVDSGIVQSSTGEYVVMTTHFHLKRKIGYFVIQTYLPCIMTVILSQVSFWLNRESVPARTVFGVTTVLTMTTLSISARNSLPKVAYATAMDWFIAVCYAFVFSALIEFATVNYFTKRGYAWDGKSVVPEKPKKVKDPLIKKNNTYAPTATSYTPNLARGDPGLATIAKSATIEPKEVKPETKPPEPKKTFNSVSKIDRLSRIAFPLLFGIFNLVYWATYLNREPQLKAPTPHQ
Chain of D(1A) dopamine receptor (P18901 whole entry): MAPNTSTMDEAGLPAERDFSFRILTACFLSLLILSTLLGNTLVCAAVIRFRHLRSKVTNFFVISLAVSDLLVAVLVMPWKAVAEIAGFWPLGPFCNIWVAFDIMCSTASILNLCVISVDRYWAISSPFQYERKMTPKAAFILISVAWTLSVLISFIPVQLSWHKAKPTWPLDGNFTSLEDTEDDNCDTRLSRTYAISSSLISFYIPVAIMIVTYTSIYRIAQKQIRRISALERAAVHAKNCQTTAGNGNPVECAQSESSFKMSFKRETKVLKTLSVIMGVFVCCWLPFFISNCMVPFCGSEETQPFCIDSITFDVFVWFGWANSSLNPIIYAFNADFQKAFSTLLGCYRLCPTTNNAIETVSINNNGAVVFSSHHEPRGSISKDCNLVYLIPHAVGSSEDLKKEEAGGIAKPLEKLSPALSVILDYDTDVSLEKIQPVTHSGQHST
Chain of D(2) dopamine receptor (P61169 whole entry): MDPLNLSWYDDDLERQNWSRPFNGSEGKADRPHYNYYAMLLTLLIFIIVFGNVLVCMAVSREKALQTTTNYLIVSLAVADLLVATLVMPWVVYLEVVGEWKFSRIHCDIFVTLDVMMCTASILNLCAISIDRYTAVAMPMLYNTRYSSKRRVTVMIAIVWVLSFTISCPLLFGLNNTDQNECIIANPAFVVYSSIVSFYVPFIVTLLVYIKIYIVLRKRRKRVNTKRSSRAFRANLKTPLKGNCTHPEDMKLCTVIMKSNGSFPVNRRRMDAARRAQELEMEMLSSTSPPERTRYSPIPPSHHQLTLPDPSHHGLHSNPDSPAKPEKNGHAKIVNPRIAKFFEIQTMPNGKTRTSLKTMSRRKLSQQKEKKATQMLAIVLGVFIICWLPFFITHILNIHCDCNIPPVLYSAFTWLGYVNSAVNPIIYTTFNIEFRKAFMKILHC
Chain of Sigma non-opioid intracellular receptor 1 (Q9R0C9 whole entry): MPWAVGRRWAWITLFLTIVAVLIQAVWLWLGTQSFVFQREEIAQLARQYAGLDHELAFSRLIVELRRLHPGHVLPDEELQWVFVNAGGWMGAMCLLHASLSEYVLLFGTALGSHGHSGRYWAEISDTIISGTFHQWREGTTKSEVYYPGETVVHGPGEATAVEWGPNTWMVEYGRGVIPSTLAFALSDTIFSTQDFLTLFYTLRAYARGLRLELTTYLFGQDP
Chain of 5-hydroxytryptamine receptor 2A (P14842 whole entry): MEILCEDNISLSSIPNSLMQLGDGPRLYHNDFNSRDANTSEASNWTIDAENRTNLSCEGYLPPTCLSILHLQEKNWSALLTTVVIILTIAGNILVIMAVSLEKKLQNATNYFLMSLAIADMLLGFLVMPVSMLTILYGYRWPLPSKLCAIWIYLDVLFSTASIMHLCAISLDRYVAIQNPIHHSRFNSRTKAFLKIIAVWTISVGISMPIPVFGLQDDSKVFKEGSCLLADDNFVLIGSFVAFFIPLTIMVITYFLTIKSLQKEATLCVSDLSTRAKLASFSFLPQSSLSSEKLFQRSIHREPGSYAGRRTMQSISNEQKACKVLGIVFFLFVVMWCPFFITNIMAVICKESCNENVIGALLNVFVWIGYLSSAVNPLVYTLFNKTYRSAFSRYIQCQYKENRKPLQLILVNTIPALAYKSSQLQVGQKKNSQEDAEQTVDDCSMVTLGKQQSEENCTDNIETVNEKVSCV
Chain of Muscarinic acetylcholine receptor M3 (P08483 whole entry): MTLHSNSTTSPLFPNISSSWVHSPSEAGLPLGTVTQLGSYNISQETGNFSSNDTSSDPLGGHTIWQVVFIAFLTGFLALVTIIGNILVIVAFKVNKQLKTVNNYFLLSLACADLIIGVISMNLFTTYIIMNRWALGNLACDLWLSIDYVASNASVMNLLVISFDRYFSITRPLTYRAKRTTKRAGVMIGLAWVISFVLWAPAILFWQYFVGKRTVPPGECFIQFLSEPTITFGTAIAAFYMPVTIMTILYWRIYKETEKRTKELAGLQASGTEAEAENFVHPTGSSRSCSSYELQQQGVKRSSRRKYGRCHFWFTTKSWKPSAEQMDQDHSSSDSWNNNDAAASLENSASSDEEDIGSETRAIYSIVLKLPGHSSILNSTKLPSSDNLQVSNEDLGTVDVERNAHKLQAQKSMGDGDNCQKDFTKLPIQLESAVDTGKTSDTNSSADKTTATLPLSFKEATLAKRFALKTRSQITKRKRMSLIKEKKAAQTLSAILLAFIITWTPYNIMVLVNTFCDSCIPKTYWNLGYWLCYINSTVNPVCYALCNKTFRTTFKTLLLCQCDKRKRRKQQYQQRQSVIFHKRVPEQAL
Chain of Beta-2 adrenergic receptor (P10608 whole entry): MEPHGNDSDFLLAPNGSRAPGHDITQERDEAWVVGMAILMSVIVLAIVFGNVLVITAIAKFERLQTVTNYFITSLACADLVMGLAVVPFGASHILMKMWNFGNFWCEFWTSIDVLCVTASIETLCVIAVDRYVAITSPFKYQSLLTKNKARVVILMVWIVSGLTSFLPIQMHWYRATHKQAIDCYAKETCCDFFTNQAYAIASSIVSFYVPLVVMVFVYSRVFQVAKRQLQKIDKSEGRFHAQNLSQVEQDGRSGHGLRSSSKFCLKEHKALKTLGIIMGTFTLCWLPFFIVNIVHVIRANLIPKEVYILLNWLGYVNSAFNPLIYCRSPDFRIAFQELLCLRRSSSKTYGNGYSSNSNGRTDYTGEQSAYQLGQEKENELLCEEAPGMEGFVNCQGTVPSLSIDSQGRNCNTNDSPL

Row | Compound | Ki (Mu-type opioid receptor) | Ki [1] | Ki (Histamine H1 receptor) | Ki [2] | Ki [3] | Ki (D(2) dopamine receptor) | Ki [4] | Ki [5] | Ki [6] | Ki [7] | Ki [8] | Ki [9] | Ki (D(1A) dopamine receptor) | Ki (Glutamate receptor 3) | Ki [10] | Ki [11] | Ki [12]
1 | Cc1cccc(NC(=O)N[C@@H]2N=C(c3ccccc3)c3ccccc3N(CC(=O)c3ccccc3C)C2=O)c1 | > 10 µM | > 10 µM | > 10 µM | > 10 µM | > 10 µM | > 10 µM | > 10 µM | > 10 µM | > 10 µM | > 10 µM | > 10 µM | > 10 µM | > 10 µM | > 10 µM | > 10 µM | > 10 µM | 
2 | Cc1cccc(NC(=O)N[C@H]2N=C(c3ccccc3)c3ccccc3N(CC(=O)c3ccccc3C)C2=O)c1 [YM022 S-isomer] |  |  |  |  |  |  |  |  |  |  |  |  |  |  |  |  | 140 nM and 490 nM
